According to patent publication US10765114B2, “4-amino-6-(pyridyl and 2-substitutedphenyl)-picolinates and 6-amino-2-(pyridyl and 2-substitutedphenyl)-pyrimidine-4-carboxylates and their use as herbicides” (Dow AgroSciences LLC, priority 2013, dated 2020):
Like-named read-outs stand apart in the source and are kept apart here.

Columns and labels:
[1] = tested on: Key Broadleaf Weed and Crop Species; assay: Post-Emergent Test II (Table 5); format: in vivo; conditions: post-emergence, 336 h; for pest or weed control at 54.5 g/ha: application rate 54.5 (kg ai/ha; footnote: g ai/ha); for pest or weed control at 109 g/ha: application rate 109 (kg ai/ha; footnote: g ai/ha)
Summary of the method: (§1)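 Plants at first or second true-leaf stage, grown 7-21 days in greenhouse, were sprayed post-emergence at 187 L/ha with compounds in acetone/DMSO/water/crop oil/surfactant mixture at the high rate and ½× to 1/16× dilutions. Injury scored visually after 14 days, 0 (none) to 100% (complete kill), versus untreated plants.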

[2] = tested on: Key Grass and Sedge Weeds as well as Grass Crops; assay: Post-Emergent Test II (Table 6); format: in vivo; conditions: post-emergence, 336 h, 14 days after application; for pest or weed control at 54.5 g/ha: 54.5 g ai/ha; for pest or weed control at 109 g/ha: 109 g ai/ha
Summary of the method: as §1

[3] = Abutilon theophrasti, ABUTH: velvetleaf (Abutilon theophrasti), read-out: Visual Growth Reduction (%) 14 Days After Application ABUTH
[4] = Amaranthus retroflexus, AMARE: redroot pigweed (Amaranthus retroflexus), read-out: Visual Growth Reduction (%) 14 Days After Application AMARE
[5] = Brassica napus, BRSSS: oilseed rape, canola (Brassica napus), read-out: Visual Growth Reduction (%) 14 Days After Application BRSSS
[6] = Chenopodium album, CHEAL: lambsquarters (Chenopodium album), read-out: Visual Growth Reduction (%) 14 Days After Application CHEAL
[7] = Euphorbia heterophylla, EPHHL: wild poinsettia (Euphorbia heterophylla), read-out: Visual Growth Reduction (%) 14 Days After Application EPHHL
[8] = Helianthus annuus, HELAN: sunflower (Helianthus annuus), read-out: Visual Growth Reduction (%) 14 Days After Application HELAN
[9] = Viola tricolor, VIOTR: wild pansy (Viola tricolor), read-out: Visual Growth Reduction (%) 14 Days After Application VIOTR
[10] = DIGSA: crabgrass (Digitaria sanguinalis), read-out: Visual Growth Reduction (%) 14 Days After Application DIGSA
[11] = ECHSS, read-out: Visual Growth Reduction (%) 14 Days After Application ECHSS
[12] = ORYSS (crop), read-out: Visual Growth Reduction (%) 14 Days After Application ORYSS
[13] = SETFA: giant foxtail (Setaria faberi), read-out: Visual Growth Reduction (%) 14 Days After Application SETFA
[14] = SORVU: grain sorghum (Sorghum vulgare), read-out: Visual Growth Reduction (%) 14 Days After Application SORVU
[15] = TRZSS (crop), read-out: Visual Growth Reduction (%) 14 Days After Application TRZSS
[16] = ZEAMX: maize, corn (Zea mays), read-out: Visual Growth Reduction (%) 14 Days After Application ZEAMX

COC(=O)c1nc(-c2ccc(Cl)c(F)c2SC)c(F)c(N)c1Cl [Compound 18]
pest or weed control at 54.5 g/ha [1, 3]: 60 to 74%
pest or weed control at 109 g/ha [1, 3]: 60 to 74%
pest or weed control at 54.5 g/ha [1, 4]: 75 to 84%
pest or weed control at 109 g/ha [1, 4]: 95 to 100%
pest or weed control at 54.5 g/ha [1, 5]: 0 to 29%
pest or weed control at 109 g/ha [1, 5]: 0 to 29%
pest or weed control at 54.5 g/ha [1, 6]: 85 to 94%
pest or weed control at 109 g/ha [1, 6]: 85 to 94%
pest or weed control at 54.5 g/ha [1, 7]: 0 to 29%
pest or weed control at 109 g/ha [1, 7]: 0 to 29%
pest or weed control at 54.5 g/ha [1, 8]: 75 to 84%
pest or weed control at 109 g/ha [1, 8]: 75 to 84%
pest or weed control at 54.5 g/ha [1, 9]: 0 to 29%
pest or weed control at 109 g/ha [1, 9]: 0 to 29%
pest or weed control at 54.5 g/ha ([2]; CYPSS, read-out: Visual Growth Reduction (%) 14 Days After Application CYPSS): 95 to 100%
pest or weed control at 54.5 g/ha [2, 10]: 0 to 29%
pest or weed control at 109 g/ha [2, 10]: 0 to 29%
pest or weed control at 54.5 g/ha [2, 11]: 0 to 29%
pest or weed control at 109 g/ha [2, 11]: 0 to 29%
pest or weed control at 54.5 g/ha [2, 12]: 0 to 29%
pest or weed control at 109 g/ha [2, 12]: 0 to 29%
pest or weed control at 54.5 g/ha [2, 13]: 0 to 29%
pest or weed control at 109 g/ha [2, 13]: 0 to 29%
pest or weed control at 54.5 g/ha [2, 14]: 0 to 29%
pest or weed control at 109 g/ha [2, 14]: 0 to 29%
pest or weed control at 54.5 g/ha [2, 15]: 0 to 29%
pest or weed control at 109 g/ha [2, 15]: 0 to 29%
pest or weed control at 54.5 g/ha [2, 16]: 0 to 29%
pest or weed control at 109 g/ha [2, 16]: 0 to 29%
